From the supplement of paper PMC10627819
In brackets after ≈: the same amount, converted by molar mass.

Assays:
B. subtilis 168 [1] = experiment: fitness (endpoint OD595 vs no drug) (fraction); higher = more growth
How it was run: (§1)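 Bacterial fitness was scored as optical density at the stationary-phase transition relative to the robust mean of no-drug control wells. Scores are capped at 1. The growth data were OD595 readings every 30 min for 14 h at 37 °C, background-subtracted against the first reading, from 384-well plates inoculated at OD595 0.01 in TSB, LB Lennox or CY.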

S. aureus Newman [2] = experiment: as above
How it was run: as §1

S. pneumoniae D39V [3] = experiment: as above
How it was run: as §1

S. aureus DSM 20231 [4] = experiment: as above
How it was run: as §1

B. subtilis 168 [5] = tested on: B. subtilis 168
S. aureus Newman [6] = tested on: S. aureus Newman
S. pneumoniae D39V [7] = tested on: S. pneumoniae D39V
S. aureus DSM 20231 [8] = tested on: S. aureus DSM 20231

CCCCCCCCCC(=O)N[C@@H](Cc1c[nH]c2ccccc12)C(=O)N[C@H](CC(N)=O)C(=O)N[C@@H](CC(=O)O)C(=O)N[C@@H]1C(=O)NCC(=O)N[C@@H](CCCN)C(=O)N[C@@H](CC(=O)O)C(=O)N[C@H](C)C(=O)N[C@@H](CC(=O)O)C(=O)NCC(=O)N[C@H](CO)C(=O)N[C@@H]([C@H](C)CC(=O)O)C(=O)N[C@@H](CC(=O)c2ccccc2N)C(=O)O[C@@H]1C [Daptomycin] showed a fitness (B. subtilis 168 [1]; 0.125 µg/mL) of 0.941, a fitness (B. subtilis 168 [1]; 0.25 µg/mL) of 0.944 and a fitness (B. subtilis 168 [1]; 0.5 µg/mL) of 0.934. For the same compound, the fitness (S. aureus Newman [2]; 0.125 µg/mL) was 0.954, the fitness (S. aureus Newman [2]; 0.25 µg/mL) was 0.964 and the fitness (S. aureus Newman [2]; 0.5 µg/mL) was 0.964. For the same compound, the fitness (S. aureus Newman [2]; 1 µg/mL) was 0.98, the fitness (S. aureus Newman [2]; 2 µg/mL) was ≥ 1 and the fitness (S. pneumoniae D39V [3]; 1 µg/mL) was 0.875. For the same compound, the fitness (S. pneumoniae D39V [3]; 2 µg/mL) was 0.889, the fitness (S. pneumoniae D39V [3]; 4 µg/mL) was 0.853 and the fitness (S. aureus DSM 20231 [4]; 0.125 µg/mL) was 0.998. The fitness (S. aureus DSM 20231 [4]; 0.25 µg/mL) was 0.989, the fitness (S. aureus DSM 20231 [4]; 0.5 µg/mL) was ≥ 1 and the fitness (S. aureus DSM 20231 [4]; 1 µg/mL) was ≥ 1. For the same compound, the fitness (S. aureus DSM 20231 [4]; 2 µg/mL) was ≥ 1, the MIC (B. subtilis 168 [5]) was 0.5 mg/L (≈ 0.309 µM) and the MIC (S. aureus Newman [6]) was 1 mg/L (≈ 0.617 µM). The MIC (S. pneumoniae D39V [7]) was 8 mg/L (≈ 4.94 µM) and the MIC (S. aureus DSM 20231 [8]) was 2 mg/L (≈ 1.23 µM).

In the case of CCN(CC)CCOC(=O)c1ccc(N)cc1 [Procaine], the fitness (B. subtilis 168 [1]; 85.5 µg/mL) is reported as 0.922, the fitness (B. subtilis 168 [1]; 171 µg/mL) is reported as 0.918 and the fitness (B. subtilis 168 [1]; 342 µg/mL) is reported as 0.91. The fitness (S. aureus Newman [2]; 85.5 µg/mL) was 0.982, the fitness (S. aureus Newman [2]; 171 µg/mL) was 0.972 and the fitness (S. aureus Newman [2]; 342 µg/mL) was 0.95. The fitness (S. pneumoniae D39V [3]; 85.5 µg/mL) was 0.995, the fitness (S. pneumoniae D39V [3]; 171 µg/mL) was ≥ 1 and the fitness (S. pneumoniae D39V [3]; 342 µg/mL) was 0.977. For the same compound, the fitness (S. aureus DSM 20231 [4]; 85.5 µg/mL) was 0.999, the fitness (S. aureus DSM 20231 [4]; 171 µg/mL) was 0.998 and the fitness (S. aureus DSM 20231 [4]; 342 µg/mL) was 0.999. The MIC (B. subtilis 168 [5]) was > 342 mg/L, the MIC (S. aureus Newman [6]) was > 342 mg/L and the MIC (S. pneumoniae D39V [7]) was > 342 mg/L. For the same compound, the MIC (S. aureus DSM 20231 [8]) was > 342 mg/L.

For Cn1nnc(-c2ccc(-c3ccc(N4C[C@H](CO)OC4=O)cc3F)cn2)n1 [Tedizolid], the fitness (B. subtilis 168 [1]; 0.0312 µg/mL) was 0.943, the fitness (B. subtilis 168 [1]; 0.0625 µg/mL) was 0.901 and the fitness (B. subtilis 168 [1]; 0.125 µg/mL) was 0.643. The fitness (S. aureus Newman [2]; 0.0625 µg/mL) was 0.936, the fitness (S. aureus Newman [2]; 0.125 µg/mL) was 0.859 and the fitness (S. aureus Newman [2]; 0.25 µg/mL) was 0.434. It also gave a fitness (S. pneumoniae D39V [3]; 0.125 µg/mL) of 0.719, a fitness (S. pneumoniae D39V [3]; 0.25 µg/mL) of 0.416 and a fitness (S. pneumoniae D39V [3]; 0.5 µg/mL) of 0.168. The fitness (S. aureus DSM 20231 [4]; 0.0625 µg/mL) was 0.923, the fitness (S. aureus DSM 20231 [4]; 0.125 µg/mL) was 0.809 and the fitness (S. aureus DSM 20231 [4]; 0.25 µg/mL) was 0.229. For the same compound, the MIC (B. subtilis 168 [5]) was 0.5 mg/L (≈ 1.35 µM), the MIC (S. aureus Newman [6]) was 0.3 mg/L (≈ 0.81 µM) and the MIC (S. pneumoniae D39V [7]) was 0.125 mg/L (≈ 0.338 µM). The MIC (S. aureus DSM 20231 [8]) was 0.3 mg/L (≈ 0.81 µM).
